Among the data in PubChem BioAssay AID2842 (Southern Research Institute, 2010) are IC90 values, retold here.

Converted amounts (≈) assume the structure as drawn. Some results are limits rather than exact numbers.

The test system of the experiment is M. tuberculosis H37Rv growth inhibition. Description: Mycobacterium tuberculosis H37Rv growth inhibition, putative kinase inhibitor library, confirmatory dose response (AID 2842).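 Further: bacteria incubated one week before Alamar blue readout.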

Broadly, the IC90 is the concentration needed for an effect of 90%.

For the compound `O=C(Nc1nc2c(s1)CCCC2)c1ccc(Cc2ccccc2)cc1`, the IC90 was 7.01 µg/mL (≈ 20.1 µM).
Regarding `CN1CCc2c(sc(NC(=O)c3ccc4ccccc4c3)c2C(N)=O)C1`, the concentration for an effect of 90% (IC90) was 11.9 µg/mL (≈ 32.5 µM).
Consider `O=C1C(Cl)=C(Nc2ccccc2O)C(=O)N1c1ccccc1`, for which the IC90 is 3.29 µg/mL (≈ 10.5 µM).
Take `CCOc1ccc2nc(Nc3nc4c(OC)cccc4s3)sc2c1`: the IC90 is 3.75 µg/mL (≈ 10.5 µM).
`CC(C)c1cc(-c2nc(-c3ccccc3)no2)n[nH]1`: the IC90 was 12.7 µg/mL (≈ 49.9 µM).
`CCc1cccc2sc(N(CCCn3ccnc3)C(=O)c3ccc(OC)c(OC)c3)nc12`: the IC90 was 13.9 µg/mL (≈ 30.9 µM).
Regarding `O=C(CCCN1C(=O)/C(=C\c2ccco2)SC1=S)Nc1ccccn1`, the concentration for an effect of 90% (IC90) is 4.87 µg/mL (≈ 13 µM).
The result for `Cc1cccc2sc(NNC(=O)c3cccc(F)c3)nc12` reads 9.09 µg/mL (≈ 30.2 µM).
As for `CCOC(=O)c1csc(Nc2nc3c(SC)cccc3s2)n1`, the concentration for an effect of 90% (IC90) was 3.13 µg/mL (≈ 8.91 µM).
In the case of `Cc1ccc(C)c(-c2nnc(NC(=O)c3ccc(Cl)s3)o2)c1`, the IC90 is 26.4 µg/mL (≈ 79.2 µM).
Turning to `COc1ccc(-c2nnc(NC(=O)C3CC3)o2)cc1`, the IC90 was 1.06 µg/mL (≈ 4.09 µM).
For the compound `O=C(Nc1ncc(Cc2ccc(F)cc2)s1)c1cccc(-n2cnnn2)c1`, the IC90 is 10.2 µg/mL (≈ 26.7 µM).
On to `Cc1ccc(C)c(-c2nnc(NC(=O)c3cccc4ccccc34)o2)c1`, for which the IC90 was 0.41 µg/mL (≈ 1.19 µM).
As for `Cc1cn2c3c(=O)[nH]c(=O)n(C)c3nc2n1CCCNc1ccccc1`, the IC90 is 3.69 µg/mL (≈ 10.5 µM).
Take `O=C(OCn1nnc2ccccc2c1=O)c1ccco1`: the IC90 is 4.76 µg/mL (≈ 17.5 µM).
Consider `O=C(Nc1nnc(C2=COCCO2)o1)c1cccc(Cl)c1`, for which the IC90 was 3.49 µg/mL (≈ 11.3 µM).
As to `O=C(CSCc1ccc(Cl)c(Cl)c1)Nc1ccc(F)cc1`, the IC90 was 12.9 µg/mL (≈ 37.4 µM).
On to `O=C(CN1C(=O)CCC1=O)Nc1nnc(-c2ccc3c(c2)CCCC3)o1`, for which the IC90 was 27.6 µg/mL (≈ 78 µM).
On to `COC(=O)c1c(NC(=O)c2ccccc2Oc2ccccc2)sc2c1CC(C)(C)NC2(C)C`, for which the IC90 was 37.1 µg/mL (≈ 79.8 µM).
For the compound `COc1cccc(C(=O)N(CCCn2ccnc2)c2nc3ccc(F)cc3s2)c1OC`, the 90% effect concentration (IC90) was 6.75 µg/mL (≈ 15.3 µM).
`N=c1sc(/C=C2\C=Nc3ccccc32)c(O)n1-c1nccs1`: the IC90 was < 0.2 µg/mL.
On to `CC1CCCN(Cc2c(O)ccc3c(=O)c(-c4nc5ccccc5s4)c(N)oc23)C1` (stereo not given), for which the IC90 is 2.89 µg/mL (≈ 6.86 µM).
The figure for `Cc1ccc(C)c(-c2nnc(NC(=O)c3cc(Cl)sc3Cl)o2)c1` is 2.16 µg/mL (≈ 5.87 µM); for `Cc1ccc(-c2nnc(NC(=O)COc3ccccc3)o2)c(C)c1` it is 5.5 µg/mL (≈ 17 µM); for `C/C(=N\NC(=O)c1cc(-c2ccc(Cl)s2)[nH]n1)c1ccco1` it is 6.9 µg/mL (≈ 20.6 µM).
Turning to `CCOC(=O)c1c(NC(=O)/C=C/C(N)=O)sc2c1CCCC2`, the IC90 was 6.76 µg/mL (≈ 21 µM).
With `Cc1sc2nc(SCC#N)[nH]c(=O)c2c1C`, the 90% effect concentration (IC90) was 17.3 µg/mL (≈ 69 µM).
As for `COc1cc2c3nnc(-c4ccc(Cl)cc4)c-3cn(Cc3ccccc3F)c2cc1OC`, the IC90 was 22.2 µg/mL (≈ 49.7 µM).
For `NC(=O)c1c(NC(=O)/C=C/c2ccc([N+](=O)[O-])s2)sc2c1CCCC2`, the IC90 was 4.6 µg/mL (≈ 12.2 µM).
For the compound `Cc1ccc(C)c(C(=O)Nc2nnc(-c3ccc(C)c(C)c3)o2)c1`, the IC90 was 2.66 µg/mL (≈ 8.28 µM).
For `CCCOc1ccc(S(=O)(=O)Nc2ccc3c(c2)CCC(=O)N3CC)cc1`, the concentration for an effect of 90% (IC90) is 13 µg/mL (≈ 33.5 µM).
The result for `Cc1ccc(C(=O)Nc2nnc(-c3cc(C)ccc3C)o2)cc1` reads 41.5 µg/mL (≈ 135 µM); that for `c1c2c(cc3sc(N4CCCC4)nc13)OCO2`, < 0.2 µg/mL.
For the compound `Clc1cc(Cl)c2nc(N3CCCC3)sc2c1`, the IC90 was 19 µg/mL (≈ 69.5 µM).
The figure for `CCOC(=O)N1CCc2c(sc(NC(=O)CCSc3ccccc3)c2C(N)=O)C1` is 8.5 µg/mL (≈ 19.6 µM); for `O=C(Nc1nc(-c2ccc3c(c2)OCCO3)cs1)C1CCCCC1` it is 11.7 µg/mL (≈ 34 µM); for `Cc1ccc2sc(N(CCN(C)C)C(=O)c3cccc4ccccc34)nc2c1C` it is 11.8 µg/mL (≈ 29.2 µM).
The result for `COc1ccc(Nc2nc(N3CCN(Cc4ccccc4)CC3)nc3nccnc23)cc1` reads 4.69 µg/mL (≈ 11 µM); that for `COc1ccc(-c2nnc(NC(=O)c3ccc4c(c3)OCCO4)o2)c(OC)c1`, 24.7 µg/mL (≈ 64.4 µM); that for `Cc1cc(NC(=O)NCCCSc2nc3ccccc3o2)no1`, 29.1 µg/mL (≈ 87.5 µM).
The result for `O=C(Cc1ccccc1)Nc1nnc(-c2ccc(Cl)cc2)o1` reads 14.1 µg/mL (≈ 44.9 µM).
Take `COc1ccc(C2CC(c3c(-c4ccccc4)c4cc(Br)ccc4[nH]c3=O)=NN2C(=O)c2ccccc2)cc1` (stereo not given): the IC90 was 1.07 µg/mL (≈ 1.85 µM).
The figure for `COc1ccc(C)c2sc(N(CCCn3ccnc3)C(=O)Cc3ccccc3)nc12` is 21.1 µg/mL (≈ 50.3 µM); for `COC(=O)C(C)Oc1ccc2cc(-c3ccc(OC)cc3)c(=O)oc2c1` (stereo not given) it is 1.07 µg/mL (≈ 3.02 µM); for `COc1ccccc1N1CCN(c2nc(Nc3ccc(F)cc3)c3nccnc3n2)CC1` it is 27.6 µg/mL (≈ 63.9 µM).
Regarding `CSc1cccc(-c2nnc(NC(=O)c3ccc([N+](=O)[O-])s3)o2)c1`, the IC90 is 1.58 µg/mL (≈ 4.36 µM).
`O=C1C(Cl)=C(Nc2ccccc2O)C(=O)N1Cc1ccccc1`: the IC90 is 5.45 µg/mL (≈ 16.6 µM).
The result for `COc1ccccc1-c1nnc(NC(=O)c2ccco2)o1` reads 13.4 µg/mL (≈ 46.9 µM); that for `CN1CCc2c(sc(NC(=O)c3ccc([N+](=O)[O-])o3)c2C(N)=O)C1`, 10.5 µg/mL (≈ 30.1 µM); that for `CSc1ccccc1-c1nnc(NC(=O)c2cc(Cl)ccc2Cl)o1`, 0.98 µg/mL (≈ 2.58 µM).
